How the values were obtained:
sciatic nerves [1] = assay: In vivo visualisation of sciatic nerves at various times following intravenous administration of 5-ALA; set-up: species or system Wistar rats
Procedure: (§1) Images were obtained 24 hours after 5-ALA administration using a CCD camera following excitation at 405 nm and porphyrin fluorescence was recorded at 620-650 nm. Scale bar 5 mm.
(§2) 5-ALA was obtained from Sigma as an HCl salt in powder form, was stored inside a freezer. Before use, it was thawed, dissolved in a buffered aqueous solution at about pH 5, and then administered intravenously or orally.
Wistar rats were administered with 5-ALA intravenously at various concentrations including 100 mg/kg and 200 mg/kg. In vivo visualisation of peripheral nerves such as sciatic nerves and brachial plexus were obtained at various post injection times ranging from 1 hours up to few weeks after administration of 5-ALA. […] 5-ALA-induced fluorescence was also detected 4 hours after administration of 5-ALA.

facial nerves = assay: In vivo visualisation of facial nerves following intravenous administration of 5-ALA; set-up: species or system Wistar rats; conditions: including 24 hours after administration
Procedure: Images were obtained 24 hours after 5-ALA administration. (A) fluorescence image (highest intensity white colour) in rats administered with 5-ALA, (B) Bright field, in rats administered with 5-ALA, (C) Bright field, in rats administered with 5-control, and (D) fluorescence image (highest intensity white colour) in rats administered with control. Images were obtained with a CCD camera following excitation at 405 nm using a light-emitting diode (LED) and red porphyrin fluorescence was recorded at 620-650 nm.
as §2
Wistar rats were administered with 5-ALA intravenously at different concentrations including 0 mg/kg (control), 100 mg/kg and 200 mg/kg. In vivo visualisation of facial nerves which are part of the cranial nerves were performed at various times including 24 hours after administration of 5-ALA. […] No fluorescence was detected in control rats (FIG. 8D).

sciatic nerve = assay: In vivo imaging of sciatic nerve in rat following oral administration of 5-ALA; set-up: species or system rats
Procedure: (§3) Images were obtained 24 hours after 5-ALA administration. (A) Bright field, (B) fluorescence image with false colour scale (highest intensity red/white) in rats administered with 5-ALA. Images were obtained with a CCD camera following excitation at 405 nm using a light-emitting diode (LED) and red porphyrin fluorescence was recorded at 620-650 nm.
as §2
A high fluorescence signal-to-background ratio (SBR) on the peripheral nerves was observed compared to adjacent tissues. […] The results were reproducible and were tested in 5 rats.

sciatic nerves [2] = assay: In vivo peripheral nerve labelling in rats, intravenous 5-ALA, fluorescence imaging of sciatic nerve; set-up: species or system Wistar rats
Procedure: as §3, with “A: bright” for “(A) Bright”, “B:” for “(B)”, “injected” for “administered”, “porphyrin prodrug, C: control rat without any drug injection.” for “5-ALA.”, “nm. Scale bar 5 mm.” for “nm.”
as §2
(§4) To investigate the potential of a porphyrin prodrug for in vivo peripheral nerve labelling, Wistar rats (n>10 were injected intravenously with the porphyrin prodrug (5-aminolevulinic acid, 5-ALA), as shown in FIG. 1. At set time-points after the injection, the rats were sacrificed and the sciatic nerves and brachial plexus (near the armpit) and surrounding tissues (e.g. muscle, fat tissues) were exposed. The fluorescence image was recorded using a CCD camera.

brachial plexus = assay: In vivo peripheral nerve labelling in rats, intravenous 5-ALA, fluorescence imaging of brachial plexus; set-up: species or system Wistar rats
Procedure: as §1
False colour scale, red/white corresponding to high intensity. BP: brachial plexus, ALN: axillary lymph node. (A): Fluorescence image of the brachial plexus 4 hours post-injection, and (B) the corresponding bright field image (C): Fluorescence image of the brachial nerve 24 hours post-injection. (D): Brachial plexus image in control rat without 5-ALA injection.
5-ALA was obtained from Sigma as an HCl salt in powder form, was stored inside a freezer. […]
as §4
Wistar rats were administered with 5-ALA intravenously at various concentrations including 100 mg/kg and 200 mg/kg. […] 5-ALA-induced fluorescence was also detected 4 hours after administration of 5-ALA.

[3] = sciatic nerve, intravenous injection, excitation 405 nm, fluorescence 620-650 nm, without optimisation of dose or time

In the case of `NCC(=O)CCC(=O)O` [5-ALA, 5-aminolevulinic acid], the “fluorescence intensity in nerve” value (sciatic nerves [1]; 2 weeks after administration) is reported as “returned close to background levels”, the “fluorescence intensity in nerve” value (sciatic nerves [1]; 4 weeks after administration) is reported as “returned close to background levels” and the “5-ALA-induced fluorescence (PpIX) in sciatic nerve” value (sciatic nerves [1]; 4 hours after intravenous administration) is reported as “detected”. For the same molecule, the “5-ALA-induced fluorescence (PpIX) in sciatic nerve” value (sciatic nerves [1]; 24 hours after intravenous administration) was “bright and localised”, the “visualisation of sciatic nerves” value (sciatic nerves [1]; 3 days after systemic administration) was “clearly visualised” and the “visualisation of sciatic nerves” value (sciatic nerves [1]; 5 days after systemic administration) was “clearly visualised”. For the same molecule, the “shortest time after contacting or administration at which peripheral nerves can be visualised” value (sciatic nerves [1]; peripheral nerves) was ≥ 1 h, the “time that peripheral nerves retain high levels of fluorescence compared to background after administration” value (sciatic nerves [1]; peripheral nerves) was “up to 7 days” and the “time after administration at which the highest SBR may be achieved” value (sciatic nerves [1]; peripheral nerves, PpIX cleared from adjacent tissues) was “about 24 hours”. The “5-ALA induced fluorescence (PpIX) in branches of facial nerves” value (facial nerves) was “bright and localised”, the “red porphyrin fluorescence in rat nerves” value (sciatic nerve; 24 hours after administration) was “highly selective and localised” and the “fluorescence signal ratio versus adjacent tissues” value (sciatic nerve; tested in 5 rats) was “comparable to the intravenous injection route”. For the same molecule, the “red porphyrin fluorescence in rat nerves” value (sciatic nerves [2]; intravenous injection) was “highly selective and localised”, the “diameter of small nerve branches that can be resolved” value (sciatic nerves [2]; intravenous injection, fluorescence imaging) was ~0.1 mm and the “nerve to fat tissue ratio (fluorescence signal-to-background ratio)” value (sciatic nerves [2]; [3]) was > 10. For the same molecule, the “nerve to muscle intensity ratio (fluorescence signal-to-background ratio)” value (sciatic nerves [2]; [3]) was > 15, the “time at which porphyrin levels reach a peak in surrounding tissue” value (sciatic nerves [2]; surrounding tissue (muscle, fat), then rapid decline to basal levels) was ~4 h and the “time course of nerve fluorescence in other peripheral nerves” value (brachial plexus; brachial plexus, compared with sciatic nerve time course) was “same results”. The brachial plexus labelling (brachial plexus; intravenous injection) was “brachial plexus labelling”.
